Assay results: PubChem BioAssay (NCI)
Values joined by “and” are separate entries in the source; they are usually repeats but may differ in a detail not shown here. Equal values may be shown once.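 All cell lines were grown in 96-well plates and treated with compound for 48 hours. GI50 marks 50% less growth. Definition used: TGI = concentration required for complete inhibition of growth.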

Legend:
Assay in all cases: DTP human tumour cell line panel, 48 h
[1] = tested on: RPMI-8226 leukemia
[2] = tested on: OVCAR-8 ovarian
[3] = tested on: UACC-62 melanoma
[4] = tested on: TK-10 renal
[5] = tested on: SF-539 CNS
[6] = tested on: LOX IMVI melanoma
[7] = tested on: EKVX NSCLC
[8] = tested on: NCI-H23 lung
[9] = tested on: HL-60(TB) leukemia
[10] = tested on: MALME-3M melanoma

| Compound | TGI [1] | TGI [2] | TGI [3] | TGI [4] | TGI [5] | TGI [6] | TGI [7] | TGI [8] | TGI [9] | TGI [10] | GI50 [4] | GI50 [3] | GI50 [5] | GI50 [6] | GI50 [7] | GI50 [8] | GI50 [9] | GI50 [10] |
| --- | --- | --- | --- | --- | --- | --- | --- | --- | --- | --- | --- | --- | --- | --- | --- | --- | --- | --- |
| COc1ccc(N=C2C(=Nc3ccc(OC)cc3)N(c3ccc(N(C)C)cc3)C(=S)N2c2ccc(OC)cc2)cc1 | > 100 µM | > 52 µM | > 100 µM | > 100 µM | > 100 µM | > 100 µM | > 100 µM | > 100 µM | > 100 µM | > 100 µM |  |  |  |  |  |  |  |  |
| COC1=C2C=[N+](C)C3C(=C2C=CC1OC)Cc1cc2c(cc13)OCO2 (stereo not drawn) | 27.1 µM | > 100 µM | 21.6 µM | 32.4 µM | 24 µM | 39.6 µM | 35.6 µM | 30.6 µM | 15.7 µM | 18.8 µM |  |  |  |  |  |  |  |  |
| CCOC(=O)C(=CN1CCNC1=S)C(=O)OCC | > 100 µM | > 100 µM | > 100 µM | > 100 µM | > 100 µM | > 100 µM | > 100 µM | > 100 µM | > 100 µM | > 100 µM | > 100 µM |  |  |  |  |  |  |  |
| CCCCCN(CCCCC)CC(C)(C)C(O)c1ccc(OC)c2ccccc12 (stereo not drawn) | 32.1 µM | 22.9 µM | 25.6 µM | 25.6 µM | 17.6 µM | 4.99 µM | 25.9 µM | 32.3 µM | 20.7 µM | 29.9 µM |  |  |  |  |  |  |  |  |
| COC(=O)c1cccc(OC)c1C#Cc1c(OC)cccc1OC | > 100 µM | > 100 µM | > 100 µM | > 100 µM | > 100 µM | > 100 µM | > 100 µM | > 100 µM | > 100 µM | > 100 µM |  |  |  |  |  |  |  |  |
| CC12CCC(C(=Nc3cc(C(F)(F)F)cc(C(F)(F)F)c3)C1=O)C2(C)C (stereo not drawn) | 44.7 µM | > 100 µM | > 100 µM | > 100 µM | 44.9 µM | 29.9 µM | > 100 µM | > 100 µM | 23.8 µM | 69.4 µM |  |  |  |  |  |  |  |  |
| COCC12CCC(OC)C34C5CC6(O)C(OC)CC(OC(C)=O)(C5C6OC(=O)c5ccccc5)C(C(OC)C13)C4N(C)C2 (stereo not drawn) | > 100 µM | > 100 µM | > 100 µM | > 100 µM | > 100 µM | > 100 µM | > 100 µM | > 100 µM | > 100 µM | > 100 µM |  |  |  |  |  |  |  |  |
| O=C1CS[C@@](CC(c2ccc(Cl)cc2)c2ccc(Cl)cc2)(c2ccc(Cl)cc2)N1 | 35.6 µM | > 100 µM | 63.1 µM | > 100 µM | 64.4 µM | 65.4 µM | > 100 µM | > 100 µM | 28.4 µM | 82.6 µM |  |  |  |  |  |  |  |  |
| CN(C)CCNC(=O)c1ccc(Cl)c2cc3ccccc3nc12 | 3.9 µM | 6.44 µM | 2.85 µM | 5.95 µM | 3.28 µM | 1.4 µM | 4.78 µM | 2.08 µM | 3.98 µM | 2.26 µM |  |  |  |  |  |  |  |  |
| Cc1cc(N(CCC#N)CCC#N)ccc1/C=C1\SC(=S)NC1=O | > 100 µM | > 100 µM | > 100 µM | > 100 µM | > 100 µM | > 100 µM | > 100 µM | > 100 µM | > 100 µM | > 100 µM |  |  |  |  |  |  |  |  |
| CC(=O)N(C(C)=O)n1c(Cc2ccc(C)cc2)nn(C(C)=O)c1=O | > 100 µM | > 100 µM | > 100 µM | > 100 µM | > 100 µM | > 100 µM | > 100 µM | > 100 µM | > 100 µM | > 100 µM |  |  |  |  |  |  |  |  |
| CCCc1nnc2sc(COc3cc(Cl)c(OCc4nn5c(CCC)nnc5s4)cc3Cl)nn12 | > 100 µM | > 100 µM | > 100 µM | > 100 µM | > 100 µM | > 100 µM | 82.2 µM | > 100 µM | 80.5 µM | > 100 µM |  |  |  |  |  |  |  |  |
| Cc1cc(O)cc(O)c1C(=O)O[C@]1(C)C(=O)C=C2C=C(/C=C/C(=O)O)OC=C2C1=O | > 100 µM | > 100 µM | > 100 µM | > 100 µM | > 100 µM | > 100 µM | > 100 µM | > 100 µM | 75.1 µM | > 100 µM |  |  |  |  |  |  |  |  |
| CCCC(=O)NC(Nc1ccc(F)cc1)(C(F)(F)F)C(F)(F)F | > 100 µM | > 100 µM | > 100 µM | > 100 µM | > 100 µM | > 100 µM | > 100 µM | > 100 µM | > 100 µM | > 100 µM |  |  |  |  |  |  |  |  |
| C[n+]1c2ccccc2c(/C=N\NS(=O)(=O)c2ccc(Cl)cc2)c2ccccc21 | > 100 µM | > 100 µM | > 100 µM | > 100 µM | > 100 µM | > 100 µM | > 100 µM | > 100 µM | 88.4 µM | > 100 µM |  |  |  |  |  |  |  |  |
| Cc1ccc(S(=O)(=O)n2ccc(-c3ccc4ccn(S(=O)(=O)c5ccc(C)cc5)c4c3)c2)cc1 | > 100 µM | > 100 µM | > 100 µM | > 100 µM | > 100 µM | > 100 µM | > 100 µM | > 100 µM | > 100 µM | > 100 µM |  |  |  |  |  |  |  |  |
| COC1(c2cccs2)c2ccccc2C(OC)(c2cccs2)c2ccccc21 (stereo not drawn) | > 100 µM | > 100 µM | > 100 µM | > 100 µM | > 100 µM | > 100 µM | > 100 µM | > 100 µM | > 100 µM | > 100 µM |  |  |  |  |  |  |  |  |
| COC(=O)NC(Cc1ccccc1)NC(C)=O (stereo not drawn) | > 100 µM | > 100 µM | > 100 µM | > 100 µM | > 100 µM | > 100 µM | > 100 µM | > 100 µM | > 100 µM | > 100 µM |  |  |  |  |  |  |  |  |
| CCN(CC)CCOC(=O)Cc1cccc2c(=O)cc(-c3ccccc3)oc12 | 51 µM and > 224 µM | 62.5 µM and > 254 µM | 62.5 µM and > 154 µM | 52.5 µM | 62.5 µM and > 179 µM | 35.1 µM and > 240 µM | 62.5 µM | 62.5 µM and > 147 µM | 44.6 µM | 62.5 µM and 165 µM |  | 39.5 µM | 58.6 µM | 45.3 µM | 25.2 µM | 58.7 µM | 3.86 µM | 64.7 µM |
| CCOC(=O)C(=O)CC(=O)C1=C(c2ccccc2OC)CC(c2cccs2)=CC1=O | > 100 µM | > 100 µM | > 100 µM | > 100 µM | > 100 µM | > 100 µM | > 100 µM | > 100 µM | > 100 µM | > 100 µM |  |  |  |  |  |  |  |  |
| O=[N+]([O-])c1cccc(Cl)c1Oc1ccc(S(=O)(=O)/N=C(\NO)Nc2ccc(Cl)cc2)cc1 | 27.8 µM | 39.6 µM | 25.5 µM | 30.4 µM | 28.1 µM | 32.7 µM | 26.2 µM | 33.9 µM | 16.5 µM | 31.2 µM |  |  |  |  |  |  |  |  |
| N#CC[N+]1(Cc2ccccn2)CCCC1 | > 100 µM | > 100 µM | > 100 µM | > 100 µM | > 100 µM | > 100 µM | > 100 µM | > 100 µM | > 100 µM | > 100 µM |  |  |  |  |  |  |  |  |
| CC12ON(P(=O)(c3ccccc3)c3ccccc3)C(C)(c3ccccc31)c1ccccc12 | > 100 µM | > 100 µM | > 100 µM | > 100 µM | > 100 µM | > 100 µM | > 100 µM | > 100 µM | > 100 µM | > 100 µM |  |  |  |  |  |  |  |  |
| CCC(=O)/C(=C\I)c1ccccc1 | > 100 µM | 3.68 µM | 9.77 µM | 28.3 µM | 34.3 µM | 2.96 µM | 33.6 µM | 14.4 µM | 6.35 µM | 3.23 µM |  |  |  |  |  |  |  |  |
| COc1cccc(-c2nccc3c(OCc4ccccc4)c(OC)c(OC)cc23)c1 | > 100 µM | > 100 µM | > 100 µM | > 100 µM | > 100 µM | > 100 µM | > 100 µM | > 100 µM | > 100 µM | > 100 µM |  |  |  |  |  |  |  |  |
